# Patent publication US20130123481A1, “MODIFIED NUCLEOSIDES, NUCLEOTIDES, AND NUCLEIC ACIDS, AND USES THEREOF” (MODERNA THERAPEUTICS, priority 2011, published 2013)
# B1: Modified G-CSF mRNA: G-CSF mRNA fully modified with 5-methylcytosine and pseudouridine, with or without lipoplex (0.75% RNAIMAX) (nucleic acid, listed as Homo Sapiens)
# chain: GGGAAAUAAGAGAGAAAAGAAGAGUAAGAAGAAAUAUAAGAGCCACCAUGGCCGGUCCCGCGACCCAAAGCCCCAUGAAACUUAUGGCCCUGCAGUUGCUGCUUUGGCACUCGGCCCUCUGGACAGUCCAAGAAGCGACUCCUCUCGGACCUGCCUCAUCGUUGCCGCAGUCAUUCCUUUUGAAGUGUCUGGAGCAGGUGCGAAAGAUUCAGGGCGAUGGAGCCGCACUCCAAGAGAAGCUCUGCGCGACAUACAAACUUUGCCAUCCCGAGGAGCUCGUACUGCUCGGGCACAGCUUGGGGAUUCCCUGGGCUCCUCUCUCGUCCUGUCCGUCGCAGGCUUUGCAGUUGGCAGGGUGCCUUUCCCAGCUCCACUCCGGUUUGUUCUUGUAUCAGGGACUGCUGCAAGCCCUUGAGGGAAUCUCGCCAGAAUUGGGCCCGACGCUGGACACGUUGCAGCUCGACGUGGCGGAUUUCGCAACAACCAUCUGGCAGCAGAUGGAGGAACUGGGGAUGGCACCCGCGCUGCAGCCCACGCAGGGGGCAAUGCCGGCCUUUGCGUCCGCGUUUCAGCGCAGGGCGGGUGGAGUCCUCGUAGCGAGCCACCUUCAAUCAUUUUUGGAAGUCUCGUACCGGGUGCUGAGACAUCUUGCGCAGCCGUGAAGCGCUGCCUUCUGCGGGGCUUGCCUUCUGGCCAUGCCCUUCUUCUCUCCCUUGCACCUGUACCUCUUGGUCUUUGAAUAAAGCCUGAGUAGGAAG
# modifications: 5mC/pseudoU; Cap1; polyA tail
# What was measured:
# [1] = tested on: peripheral blood mononuclear cells (PBMC); experiment: In Vitro Screening in PBMC - G-CSF protein expression; format: cell-based, human; settings: 500 ng mRNA
# Description: (§1) The supernatant was harvested and stored frozen until analyzed by ELISA to determine the G-CSF protein expression, and the induction of the cytokines interferon-alpha (IFN-α) and tumor necrosis factor alpha (TNF-α).
# Balb-C mice = experiment: In Vivo Screening of Luciferase Modified mRNA (bioluminescence, total flux); settings: fully modified luciferase mRNA in 1×PBS, subcutaneous, 42 to 103 ug, imaged 8 hours after dosing, total flux of entire mouse
# Description: A control of PBS was also tested. The dosages of the modified luciferase mRNA is also outlined in Table 31. 8 hours after dosing the mice were imaged to determine luciferase expression. Twenty minutes prior to imaging, mice were injected intraperitoneally with a D-luciferin solution at 150 mg/kg. Animals were then anesthetized and images were acquired with an IVIS Lumina II imaging system (Perkin Elmer). Bioluminescence was measured as total flux (photons/second) of the entire mouse.
# [2] = tested on: peripheral blood mononuclear cells (PBMC), TNF-alpha; experiment: In Vitro PBMC Studies: Percent modification - TNF-alpha expression; format: cell-based, human
# Description: (§2) The supernatant was harvested and run by ELISA 22 hours after transfection to determine the protein expression.
# [3] = tested on: peripheral blood mononuclear cells (PBMC), IFN-alpha; experiment: In Vitro PBMC Studies: Percent modification - IFN-alpha expression; format: cell-based, human
# Description: as §2
# [4] = tested on: peripheral blood mononuclear cells (PBMC); experiment: In Vitro PBMC Studies: Percent modification - G-CSF expression; format: cell-based, human; settings: average of PBMC donors D1-D3
# Description: 480 ng of G-CSF mRNA modified with 5-methylcytosine (5mC) and pseudouridine (pseudoU) or unmodified G-CSF mRNA was transfected with 0.4 uL of Lipofectamine 2000 into peripheral blood mononuclear cells (PBMC) from three normal blood donors (D1, D2, and D3). […] The supernatant was harvested and run by ELISA 22 hours after transfection to determine the protein expression. The expression of IFN-alpha and TNF-alpha may be a secondary effect from the transfection of the G-CSF mRNA.
# HeLa cells = experiment: G-CSF expression in HeLa cells (ELISA); format: cell-based, human; settings: fully modified G-CSF mRNA transfected in HeLa cells, ELISA
# Description: (§3) To assess the activity of all our different chemical modifications in the context of a second open reading frame, we replicated experiments previously conducted using luciferase mRNA, with human G-CSF mRNA. […] The mutant T7 polymerase was obtained commercially (Durascribe® T7 Transcription kit (Cat. No. DS010925) (Epicentre®, Madison, Wis.).
# (§4) The modified RNA in Tables 45 and 46 were transfected in vitro in HeLa cells or added to rabbit reticulysates (250 ng of modified mRNA) as indicated. […] In Table 45, “NT” means not tested.
# rabbit reticulysates = experiment: G-CSF expression in rabbit reticulysates (ELISA); format: biochemical; settings: 250 ng modified G-CSF mRNA in rabbit reticulysates
# Description: as §3, §4
# wild-type T7 polymerase = wild-type T7 polymerase (Escherichia phage T7, UniProt P00573); experiment: In Vitro Transcription with Wild-Type T7 Polymerase (transcription and capping yield); settings: OD260; for In vitro transcription Yield: wild-type T7 polymerase; for Capping reaction Yield: enzymatic capping
# Description: The luciferase and G-CSF modified mRNA were also subjected to an enzymatic capping reaction and each modified mRNA capping reaction was evaluated for yield by spectrophometic measurement (OD260) and correct size assessed using bioanalyzer.
# [5] = tested on: Salmonella tester strains (TA97a, TA98, TA100 and TA1535) and Escherichia coli strain (WP2 uvrA pKM101); experiment: Microames Reverse Mutation Screen; settings: for Cytotoxicity (reduction in the background lawn and/or number of revertants) / increase in the number of revertant colonies as compared with the vehicle control: any strain, with or without metabolic activation; for mutagenic (microAmes screen): up to 250 ug/well, strains TA97a, TA98, TA100, TA1535 and WP2 uvrA pKM101 with or without metabolic activation
# Description: The microames screen is a version of the full Ames preincubation assay. It detects both frameshift and base-pair substitution mutations using four Salmonella tester strains (TA97a, TA98, TA100 and TA1535) and one Escherichia coli strain (WP2 uvrA pKM101). Strains TA97a and TA98 detect frameshift mutations, and TA100, TA1535 and WP2 uvrA pKM101 detect base-pair substitution mutations. This scaled-down Ames test uses minimal compound, is conducted with and without metabolic activation (S9 fraction), and uses multiwell plates. This teste is a microbial assay to detect the mutagenic potential of test compounds.
# Positive control compounds were used at 4 different concentrations to ensure the assay system was sensitive to known mutagenic compounds. DMSO was used as the vehicle control.
# [6] = tested on: peripheral blood mononuclear cells (PBMC), interferon-alpha (IFN-α); format: cell-based, human; settings: for IFN-α Expression (pg/ml) Donor 1 / IFN-α Expression (pg/ml) Donor 2 / IFN-α Expression (pg/ml) Donor 3: 500 ng fully modified G-CSF mRNA; for IFN-α Expression (pg/ml) Donor 1: Lipofectamine 2000, PBMC Donor 1, supernatant ELISA; for IFN-α Expression (pg/ml) Donor 2: Lipofectamine 2000, PBMC Donor 2, supernatant ELISA; for IFN-α Expression (pg/ml) Donor 3: Lipofectamine 2000, PBMC Donor 3, supernatant ELISA
# Description: as §1
# [7] = tested on: peripheral blood mononuclear cells (PBMC), tumor necrosis factor alpha (TNF-α); experiment: In Vitro Screening in PBMC - tumor necrosis factor alpha (TNF-α) induction; format: cell-based, human; settings: 500 ng fully modified G-CSF mRNA; for TNF-α Expression (pg/ml) Donor 1: Lipofectamine 2000, PBMC Donor 1, supernatant ELISA; for TNF-α Expression (pg/ml) Donor 2: Lipofectamine 2000, PBMC Donor 2, supernatant ELISA; for TNF-α Expression (pg/ml) Donor 3: Lipofectamine 2000, PBMC Donor 3, supernatant ELISA
# Description: as §1
# [8] = Stability of Modified RNA - storage, gel electrophoresis; format: physicochemical
# Description: Stability experiments were conducted to obtain a better understanding of storage conditions to retain the integrity of modified RNA. […] After the mRNA had been stored for 0 hours, 2 hours, 6 hours, 24 hours, 48 hours, 5 days and 14 days, the mRNA was analyzed by gel electrophoresis using a Bio-Rad EXPERION™ system. The modified, unmodified and lipoplexed G-CSF mRNA was also stored in RNASTABLE® (Biomatrica, Inc. San Diego, Calif.) at 40° C. or water at −80° C. or 40° C. for 35 days before being analyzed by gel electrophoresis.
# [9] = PBMC Donor 1, 0.4 uL Lipofectamine 2000
# [10] = G-CSF modified mRNA (wild-type T7)
# [11] = Luciferase modified mRNA (wild-type T7)
# wild-type T7 polymerase, sequence (P00573 whole entry): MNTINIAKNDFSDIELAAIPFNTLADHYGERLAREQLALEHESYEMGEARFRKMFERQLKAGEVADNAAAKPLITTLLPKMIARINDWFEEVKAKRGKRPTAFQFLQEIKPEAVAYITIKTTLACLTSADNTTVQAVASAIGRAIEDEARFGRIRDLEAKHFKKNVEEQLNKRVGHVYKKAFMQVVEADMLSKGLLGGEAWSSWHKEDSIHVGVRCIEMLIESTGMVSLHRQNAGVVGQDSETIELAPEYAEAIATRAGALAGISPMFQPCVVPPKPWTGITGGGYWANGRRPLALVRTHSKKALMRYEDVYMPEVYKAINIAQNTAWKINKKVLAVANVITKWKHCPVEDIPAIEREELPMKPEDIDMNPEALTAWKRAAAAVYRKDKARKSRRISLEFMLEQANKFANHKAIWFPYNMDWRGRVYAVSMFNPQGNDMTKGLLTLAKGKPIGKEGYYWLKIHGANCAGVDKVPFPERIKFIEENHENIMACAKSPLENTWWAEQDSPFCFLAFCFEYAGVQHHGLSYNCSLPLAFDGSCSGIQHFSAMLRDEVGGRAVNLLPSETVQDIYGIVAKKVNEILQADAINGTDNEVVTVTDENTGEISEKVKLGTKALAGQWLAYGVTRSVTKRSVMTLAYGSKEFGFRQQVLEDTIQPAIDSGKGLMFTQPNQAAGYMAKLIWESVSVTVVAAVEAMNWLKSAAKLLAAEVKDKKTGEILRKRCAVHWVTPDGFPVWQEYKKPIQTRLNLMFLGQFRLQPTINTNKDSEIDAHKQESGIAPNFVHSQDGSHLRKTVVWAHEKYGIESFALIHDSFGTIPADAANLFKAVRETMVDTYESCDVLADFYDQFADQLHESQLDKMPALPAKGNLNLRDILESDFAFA
molecule,measurement,setting,value
O=c1[nH]c(=O)n([C@@H]2O[C@H](CO)[C@@H](O)[C@H]2O)cc1Br [5-bromouridine],G-CSF Protein Expression,[1]; [9],314 pg/mL
same,G-CSF Protein Expression,[1]; PBMC Donor 2,482 pg/mL
same,G-CSF Protein Expression,[1]; PBMC Donor 3,291 pg/mL
same,Luciferase expression (photon/second),Balb-C mice,3.75E+07 photon/second
"CN(C)c1nc2c(ncn2[C@@H]2O[C@H](CO)[C@@H](O)[C@H]2O)c(=O)[nH]1 [Compound 50, N,N-dimethyl guanosine]",Average TNF-a,[2],28 pg/mL
same,Average IFN-a,[3],376 pg/mL
same,Average G-CSF,[4],189 pg/mL
"Cn1cc([C@@H]2O[C@H](CO)[C@@H](O)[C@H]2O)c(=O)[nH]c1=O [Compound 1-methylpseudouridine, 1-methylpseudouridine]",Luciferase expression (photon/second),Balb-C mice,7.40E+07 photon/second
"O=c1[nH]cc([C@@H]2O[C@H](CO)[C@@H](O)[C@H]2O)c(=O)[nH]1 [pseudouridine, Pseudouridine]",G-CSF protein (pg/ml) HeLa cells,HeLa cells,"1,150,909 pg/ml"
same,G-CSF Protein Expression,[1]; [9],2477 pg/mL
same,G-CSF Protein Expression,[1]; PBMC Donor 2,"1,909 pg/ml"
same,G-CSF Protein Expression,[1]; PBMC Donor 3,"1,498 pg/ml"
same,G-CSF protein (pg/ml) Rabbit reticulysates cells,rabbit reticulysates,"147,875 pg/ml"
same,Luciferase expression (photon/second),Balb-C mice,1.36E+07 photon/second
"C[C@]1(CO)O[C@@H](n2ccc(N)nc2=O)[C@H](O)[C@@H]1O [Compound 25, 4′-C-methyl cytidine]",Average TNF-a,[2],44 pg/mL
same,Average IFN-a,[3],545 pg/mL
same,Average G-CSF,[4],122 pg/mL
Cn1cc([C@@H]2O[C@H](CO)[C@@H](O)[C@H]2O)c(=O)[nH]c1=O [N1-methylpseudouridine],In vitro transcription Yield,wild-type T7 polymerase; G-CSF mRNA,3.24 mg
same,Capping reaction Yield,wild-type T7 polymerase; [10],2.58 mg
same,In vitro transcription Yield,wild-type T7 polymerase; Luciferase mRNA,1.43 mg
same,Capping reaction Yield,wild-type T7 polymerase; [11],1.27 mg
same,Cytotoxicity (reduction in the background lawn and/or number of revertants),[5],not observed
same,increase in the number of revertant colonies as compared with the vehicle control,[5],no increase
same,mutagenic (microAmes screen),[5],not mutagenic
same,G-CSF Protein Expression,[1]; [9],"21,495 pg/ml"
same,G-CSF Protein Expression,[1]; PBMC Donor 2,"16,550 pg/ml"
same,G-CSF Protein Expression,[1]; PBMC Donor 3,"12,441 pg/ml"
same,G-CSF protein (pg/ml) Rabbit reticulysates cells,rabbit reticulysates,"230,000 pg/ml"
same,cytokine induction (in words),[6],no cytokine induction
same,IFN-α Expression (pg/ml) Donor 1,[6],26 pg/mL
same,IFN-α Expression (pg/ml) Donor 2,[6],75 pg/mL
same,IFN-α Expression (pg/ml) Donor 3,[6],138 pg/mL
same,TNF-α Expression (pg/ml) Donor 1,[7],101 pg/mL
same,TNF-α Expression (pg/ml) Donor 2,[7],106 pg/mL
same,TNF-α Expression (pg/ml) Donor 3,[7],134 pg/mL
CC(=O)Nc1ccn([C@@H]2O[C@H](CO)[C@@H](O)[C@H]2O)c(=O)n1 [N4-acetylcytidine],G-CSF protein (pg/ml) HeLa cells,HeLa cells,"39,545 pg/ml"
same,G-CSF Protein Expression,[1]; [9],50 pg/mL
same,G-CSF Protein Expression,[1]; PBMC Donor 2,136 pg/mL
same,G-CSF Protein Expression,[1]; PBMC Donor 3,36 pg/mL
same,G-CSF protein (pg/ml) Rabbit reticulysates cells,rabbit reticulysates,"8,000 pg/ml"
same,Luciferase expression (photon/second),Balb-C mice,1.11E07 photon/second
Cc1cn([C@@H]2O[C@H](CO)[C@@H](O)[C@H]2O)c(=O)[nH]c1=O [5-methyluridine],G-CSF protein (pg/ml) HeLa cells,HeLa cells,"347,045 pg/ml"
same,G-CSF Protein Expression,[1]; [9],318 pg/mL
same,G-CSF Protein Expression,[1]; PBMC Donor 2,359 pg/mL
same,G-CSF Protein Expression,[1]; PBMC Donor 3,345 pg/mL
same,G-CSF protein (pg/ml) Rabbit reticulysates cells,rabbit reticulysates,"147,250 pg/ml"
same,Luciferase expression (photon/second),Balb-C mice,7.42E+06 photon/second
"Cc1cn([C@@H]2O[C@H](CO)[C@@H](O)[C@H]2O)c(=O)nc1N [5-Methylcytidine, reference compound]",In vitro transcription Yield,wild-type T7 polymerase; G-CSF mRNA,2.05 mg
same,Capping reaction Yield,wild-type T7 polymerase; [10],1.08 mg
same,In vitro transcription Yield,wild-type T7 polymerase; Luciferase mRNA,1.29 mg
same,Capping reaction Yield,wild-type T7 polymerase; [11],1.02 mg
same,Cytotoxicity (reduction in the background lawn and/or number of revertants),[5],not observed
same,increase in the number of revertant colonies as compared with the vehicle control,[5],no increase
same,mutagenic (microAmes screen),[5],not mutagenic
same,G-CSF Protein Expression,[1]; [9],291 pg/mL
same,G-CSF Protein Expression,[1]; PBMC Donor 2,277 pg/mL
same,G-CSF Protein Expression,[1]; PBMC Donor 3,359 pg/mL
same,Luciferase expression (photon/second),Balb-C mice,1.94E+07 photon/second
same,IFN-α Expression (pg/ml) Donor 1,[6],643 pg/mL
same,IFN-α Expression (pg/ml) Donor 2,[6],359 pg/mL
same,IFN-α Expression (pg/ml) Donor 3,[6],529 pg/mL
same,TNF-α Expression (pg/ml) Donor 1,[7],176 pg/mL
same,TNF-α Expression (pg/ml) Donor 2,[7],136 pg/mL
same,TNF-α Expression (pg/ml) Donor 3,[7],193 pg/mL
B1,freeze/thaw cycles tolerated,[8],12 freeze/thaw cycles
same,stable out to,[8]; stored at 25° C.,120 h
same,stable out to,[8]; stored at 37° C.,24 h
same,stable out to,[8]; stored at 50° C.,6 h
